This is an account of results in US20020164581A1 (priority 2001, published 2002).

The test system of data set [1] is bovine aortic endothelial cells (bAECs). To be noted: for protection against paraquat-mediated cytotoxicity, SERM alone: 10 nM-1 μM, 24 h pretreatment (FIG. 4). As for the experimental part: Primary cultures of bAECs were established from five female beef cattle (ranging in age from 1 to 2 years old) according to the method of Fenselau and Mello (Cancer Res. 36:3269-3273, 1976). Pooled cells were routinely maintained under humidified air (5% CO2) at 37° C. in Dulbecco's modified medium supplemented with 10% fetal bovine serum (FBS). Cells from the second to the fifth passages were used in these studies.
In the studies in which male and female bAECs were compared, batches of bAECs were independently established from 5 female and 4 male beef cattle (ranging in age from 1 to 2 years old) according to the method of Fenselau and Mello (Cancer Res. 36:3269-3273, 1976). Otherwise, the cells were treated and assessed as described in the paragraph above.
Prior to E2 pretreatment, cells were grown in phenol red-free DMEM supplemented with 10% dextran/charcoal-stripped FBS for at least 1 passage (3-4 days). Phenol red-free Dulbecco's modified medium was used to avoid potential estrogenic interference. Serum steroid deprivation was conducted according to the conditions described by Yeh et al. (Proc. Natl. Acad. Sci. USA 95:5527-5532, 1998). The E2 level in the stripped serum was assayed using an [^125I] 17β-estradiol radioimmunoassay kit (TKE21, Diagnostic Products Corporation, Los Angeles, Calif.). […] The cells grown in E2-free environments were plated onto Falcon 24-well Primariae™ plates at a density of 5×10^4 cells/well. E2 in dimethylsulfoxide (DMSO) was added to each well at final concentrations ranging from 1 nM to 10 μM 3 hours after plating, and the cells were then incubated for 24 hours (a duration commonly used for the studies of the genomic effects of E2) at 37° C. Control cells were treated with a corresponding amount of DMSO (a final concentration 0.05%).
Prior to oxidative challenge, E2-containing media was removed, and the cells were rinsed with PBS twice and re-fed with serum-free fresh medium. Subsequently, paraquat was added to the cells at the indicated doses (0.1-2.0 mM) for 3 hours. The oxidative challenge was terminated by aspiration of the oxidant-containing medium and quickly rinsing the cells twice with PBS. The cells were allowed to recover for 48 hours in medium supplemented with 10% regular FBS to exclude the possibility that different concentrations of E2 interfere with the cellular recovery processes.
Cell survival after oxidative challenge was assessed with a 3-(4,5-dimethylthiazol-2-yl) 2,5 diphenyltetrazolium bromide (MTT) assay in which the mitochondrial dehydrogenase activity of viable cells reduces MTT to a blue formazan product (Carmichael et al. Cancer Res. 47:936-942, 1987). Our prior conditions were employed (Si et al., Endocrine in press, 2001). Briefly, cells were treated with 1/10 volume of MTT solution (5 mg/ml in PBS) and incubated at 37° C. for 2 hours. The supernatant was then removed, and 600 μl of lysis buffer (50% dimethyl formamide, 5% sodium dodecyl sulphate, 0.35 M acetic acid, 50 mM HCl) was added to each well. Following cell lysis, the absorbency was measured at 570 nm and used as an indicator of relative cell survival. The surviving fraction was calculated as compared to the cells without paraquat challenge.
Two experimental groups were created. In the first group, E2 was added only during the 24-hour pretreatment period. In the second group, E2 was added only during the 3-hour paraquat exposure.

Data set [2] concerns antioxidant enzymes (SOD, CAT, GPX, GR) in bAECs. Briefly: Antioxidant enzyme (AOE) activities in cell lysates, all four enzymes together. Format: cell-based, bovine. Particulars: for AOE change, SERM alone: pretreatment with 1 μM alone. As for the experimental part: […] The cells were then lysed on ice by sonication at a setting of 50 mW, with 3×15 set cycles using a Cole-Parmer Ultrasonic Homogenizer (Chicago, Ill.). Protein concentrations in the samples were determined by the Bradford method with bovine serum albumin as a standard (Bradford, Anal. Biochem. 72:248-254, 1976).
SOD activity was determined by a method based on the ability of SOD to suppress epinephrine auto-oxidation (Misra and Fridovich, J.Biol. Chem. 247:3170-3175, 1972). One unit of SOD activity is defined as the amount of protein that inhibits the oxidation of epinephrine by 50%. Briefly, 100 μl of 10×-diluted cell homogenate (about 10 μg protein) was added to 900 μl of carbonate buffer (0.1 M NaHCO3, 0.1 M Na2CO3, 0.1 mM EDTA, pH 10.2) containing 0.7 mM of epinephrine. The absorbency of the mixture was measured for 4 minutes at 480 nm using a Hitachi U-2000 spectrophotometer (Hitachi, San Jose, Calif.).
CAT activity was determined by the method of Aebi (Methods Enzymol. 105:121,-126, 1984). One unit of CAT activity is defined as the amount of protein that degrades 1 μmole of H2O2 per minute. Initially, 10 μl of absolute ethanol was mixed with 100 μl of cell homogenates and pre-incubated at 4° C. for 30 minutes. Following the addition of 10 μl Triton X-100 (reduced form), a 100 μl aliquot (about 100 μg of protein) of the resultant mixture was next added to 500 μl of hydrogen peroxide (66 mM) and 400 μl of phosphate buffer (0.1 M NaH2PO4, 0.1 M Na2HPO4, 0.1 mM EDTA, pH 7.0). The absorbency of the mixture was monitored for one minute at 240 nm spectrophotometrically. The molar extinction coefficient of 43.6 M/cm was used to determine the catalase activity.
GPX activity was determined by a modified method of Flohe and Gunzler (Methods Enzymol. 105:114-121, 1984). One unit of GPX activity is defined as the amount of protein that oxidizes 1 nmole of β-NADPH per minute. In this assay, 100 μl of cell homogenate (about 100 μg protein) was added to 800 μl of phosphate buffer (0.1 M NaH2PO4, 0.1 M Na2HPO4, 0.1 mM EDTA, pH 7.0) containing 12.5 mM glutathione (reduced form, GSH), 0.2 mM β-nicotinamide adenine dinucleotide phosphate (reduced form, β-NADPH), and 0.34 U glutathione reductase. This mixture was pre-incubated at 37 C for 10 minutes and then 100 μl of 12 mM t-butyl hydroperoxide was added. The absorbency of the mixture was determined at 340 nm for 3 minutes. The molar extinction coefficient of 6.22 mM/cm was used to determine the activity of GPX.
GR activity was determined by a modified method of Carlberg and Mannervik (Methods Enzymol. 11 3:484-490, 1985). One unit of GR activity is defined as the amount of protein that oxidizes 1 nmole of β-NADPH per minute. Briefly, 50 μl of 2 mM β-NADPH in 10 mM Tris buffer (pH 7.0) was added to a cuvette containing 50 μl of 20 mM glutathione (oxidized ofrm, GSSG) in phosphate buffer (0.1 M NaH2PO4, 0.1 M Na2HPO4, 0.1 mM EDTA, pH 7.0) and 800 μl of phosphate buffer. Following the addition of cell homogenate (about 100 μg protein/100 μl) the final mixture was measured at 340 nm for 3 minutes. The molar extinction coefficient of 6.22 mM/cm was used to determine the activity of […].

For data set [3], the system named is estrogen receptor. Particulars: cited from earlier work.
Data set [4] concerns LDL. Particulars: 5-50 μM; oxidation by copper ions, monocytes, or endothelial cells; cited from earlier work.
Data set [5] deals with endothelial nitric oxide synthase. Particulars: endothelial cells; cited from earlier work.
For data set [6], the system named is cardiomyocytes. Particulars: cited from earlier work.

Where two headings read alike, the source gives them in different places.

Turning to 4-hydroxytamoxifen [4-OH-Tam], in data set [1], the “protection against subsequent oxidative challenge” value was “neither positively nor negatively influenced oxidative resistance” and the “protection against paraquat-mediated cytotoxicity, SERM alone” value is reported as “failed to confer detectable protection”. Also, the “effect on E2-induced oxidative protection” value in data set [1] (10 nM-1 μM added simultaneously with 1 nM E2 during pretreatment) is “significantly blocked estrogen-induced oxidative protection”. The “minimal dose to suppress E2 protection” value in data set [1] (co-treatment with 1 nM E2, endothelial cells) worked out at 10 nM. For the same compound, in data set [2] (1 μM SERM included during 1 nM E2 pretreatment (FIG. 6)), the “effect on E2's capability to evoke AOE activities” value is reported as “significantly decreased estrogen's capability to evoke AOE activities”. Also, the “AOE change, SERM alone” value in data set [2] is listed as “no detectable change in AOE”.

As to `CCCCN(C)C(=O)CCCCCCCCCC[C@@H]1Cc2cc(O)ccc2[C@H]2CC[C@]3(C)[C@@H](O)CC[C@H]3[C@H]12` [ICI164384], the “effect on the beneficial effect of E2” value in data set [3] was “reverses the beneficial effect of E2”.

With `O=C(c1ccc(OCCN2CCCCC2)cc1)c1c(-c2ccc(O)cc2)sc2cc(O)ccc12` [Ral, raloxifene], in data set [1], the “protection against subsequent oxidative challenge” value is on record as “neither positively nor negatively influenced oxidative resistance” and the “protection against paraquat-mediated cytotoxicity, SERM alone” value is “failed to confer detectable protection”. The “effect on E2-induced oxidative protection” value in data set [1] (1 μM (highest tested dose) added with 1 nM E2 during pretreatment) is listed as “only a slight inhibitory effect on E2 protection”. Besides, the “effect on E2-induced oxidative protection” value in data set [1] (1-100 nM added with 1 nM E2 during pretreatment) was “did not affect E2-induced oxidative protection”. Besides, the “AOE change, SERM alone” value in data set [2] is recorded as “no detectable change in AOE”.

For `C[C@@H]1C[C@@H]([C@H](O)CC2CC(=O)NC(=O)C2)C(=O)[C@@H](C)C1` [cyclohexamide], in data set [2] (included during the E2 pretreatment period), the “effect on AOE induction by E2” value is “abolished”.

As for `CC/C(=C(/CC)c1ccc(O)cc1)c1ccc(O)cc1` [diethylstilbestrol], the “protection against subsequent oxidative challenge” value in data set [1] is on record as “acquired significant protection against subsequent oxidative challenge”.

As to `C[C@]12CC[C@@H]3c4ccc(O)cc4CC[C@H]3[C@@H]1C[C@@H](O)[C@@H]2O` [estriol], the “effect on LDL oxidation” value in data set [4] is “inhibit LDL oxidation”.

Turning to `COc1ccc2c(c1)CCC(c1ccccc1)=C2c1ccc(OCCN2CCCC2)cc1` [nafoxidine], in data set [1], the “protection against subsequent oxidative challenge” value is “neither positively nor negatively influenced oxidative resistance”.

As to `C[n+]1ccc(-c2cc[n+](C)cc2)cc1.[Cl-].[Cl-]` [paraquat, 1,1′-dimethyl-4,4′-bipyridinium dichloride], in data set [1] (exposure of bAECs 3 h at 37 C), the “cell killing by paraquat” value is recorded as “dose-dependent cell killing”. For the same compound, the LD50 of paraquat in data set [1] (male and female bAECs (both genders)) was 0.1 to 1.0 mM. In addition, the “LD50 of paraquat toxicity” value in data set [1] (untreated control cells (no E2)) is “about 0.5 mM”.

As for `CC/C(=C(\c1ccccc1)c1ccc(OCCN(C)C)cc1)c1ccccc1` [tamoxifen], in data set [5], the “effect on E2's induction of nitric oxide synthase” value was “interferes with E2's ability to induce nitric oxide synthase”. Besides, the “effect on E2's protection in cardiomyocytes” value in data set [6] is on record as “abolishes this protective effect”.

Consider `C[C@]12CC[C@H]3[C@@H](CCC4=CC(=O)CC[C@@]43C)[C@@H]1CC[C@@H]2O` [testosterone], for which, in data set [4], the “effect on LDL oxidation” value is on record as “has no effect”.
